From PubChem BioAssay AID1259407 (Chemical Carcinogenesis Research Information System (CCRIS), 2018)
Active and inactive are the calls of the source. No rule for the calls is given here.

Test system: CCRIS mutagenicity, Ames/micronucleus/aberration tests
Assay: CCRIS mutagenicity studies

Measured: mutagenic call

CC[C@H]1OC(=O)[C@H](C)[C@@H](O[C@H]2C[C@@](C)(OC)[C@@H](O)[C@H](C)O2)[C@H](C)[C@@H](O[C@@H]2O[C@H](C)C[C@H](N(C)C)[C@H]2O)[C@](C)(O)C[C@@H](C)[C@@H]2N[C@@H](COCCOC)O[C@H]([C@H]2C)[C@]1(C)O
inactive: End Point: In vitro chromosomal aberrations, Test System: Chinese hamster lung (CHL) cells, Metabolic Activation: None inactive; negative | End Point: In vitro chromosomal aberrations, Test System: Chinese hamster lung (CHL) cells, Metabolic Activation: S-9 inactive; negative

CCN(CC)CCCC(C)Nc1cc(OC)cc2cccnc12 (stereo not drawn)
inactive: Test System: AMES SALMONELLA TYPHIMURIUM, Strain/Indicator: TA97, Metabolic Activation: NONE, Method: PREINCUBATION inactive; negative | Test System: AMES SALMONELLA TYPHIMURIUM, Strain/Indicator: TA97, Metabolic Activation: RAT, LIVER, S-9, PHENOBARBITAL AND BETA-NAPHTHOFLAVONE, Method: PREINCUBATION inactive; negative | Test System: AMES SALMONELLA TYPHIMURIUM, Strain/Indicator: TA98, Metabolic Activation: RAT, LIVER, S-9, PHENOBARBITAL AND BETA-NAPHTHOFLAVONE, Method: PREINCUBATION inactive; negative | Test System: AMES SALMONELLA TYPHIMURIUM, Strain/Indicator: TA100, Metabolic Activation: NONE, Method: PREINCUBATION inactive; negative | Test System: AMES SALMONELLA TYPHIMURIUM, Strain/Indicator: TA100, Metabolic Activation: RAT, LIVER, S-9, PHENOBARBITAL AND BETA-NAPHTHOFLAVONE, Method: PREINCUBATION inactive; negative | Test System: AMES SALMONELLA TYPHIMURIUM, Strain/Indicator: TA102, Metabolic Activation: NONE, Method: PREINCUBATION inactive; negative | Test System: AMES SALMONELLA TYPHIMURIUM, Strain/Indicator: TA102, Metabolic Activation: RAT, LIVER, S-9, PHENOBARBITAL AND BETA-NAPHTHOFLAVONE, Method: PREINCUBATION inactive; negative | Test System: E.COLI, Strain/Indicator: WP2UVRA/PKM101, Metabolic Activation: NONE, Method: PREINCUBATION inactive; negative | Test System: E.COLI, Strain/Indicator: WP2UVRA/PKM101, Metabolic Activation: RAT LIVER S-9, PHENOBARBITAL AND 5,6-BENZOFLAVONE, Method: PREINCUBATION inactive; negative
active: Test System: AMES SALMONELLA TYPHIMURIUM, Strain/Indicator: TA98, Metabolic Activation: NONE, Method: PREINCUBATION active; positive

O=S(=O)(O)c1cc(N=Nc2ccc(O)cc2)ccc1C=Cc1ccc(N=Nc2ccc(O)cc2)cc1S(=O)(=O)O
inactive: Test System: MOUSE LYMPHOMA, Strain/Indicator: L5178Y (TK+/TK-), Metabolic Activation: NONE, Method: SUSPENSION/PLATE inactive; negative. reevaluation of results: negative | Test System: MOUSE LYMPHOMA, Strain/Indicator: L5178Y (TK+/TK-), Metabolic Activation: RAT, LIVER, S-9, AROCLOR 1254, Method: SUSPENSION/PLATE inactive; negative. reevaluation of results: negative

C=Cc1ccccn1
active: End Point: In vitro chromosomal aberrations, Test System: Chinese hamster lung (CHL/IU) cells, Metabolic Activation: Rat, Liver, S9, Phenobarbital and 5,6-benzoflavone active; positive (structural changes) | Test System: E. coli, Strain/Indicator: WP2uvrA/pKM101, Metabolic Activation: Rat, Liver, S9, Sodium phenobarbital and 5,6-benzoflavone (10%), Method: Preincubation active; positive
inactive: Test System: AMES SALMONELLA TYPHIMURIUM, Strain/Indicator: TA98, Metabolic Activation: NONE, Method: STANDARD PLATE inactive; negative | Test System: AMES SALMONELLA TYPHIMURIUM, Strain/Indicator: TA98, Metabolic Activation: RAT, LIVER, S-9, AROCLOR 1254, Method: STANDARD PLATE inactive; negative | Test System: AMES SALMONELLA TYPHIMURIUM, Strain/Indicator: TA100, Metabolic Activation: NONE, Method: STANDARD PLATE inactive; negative | Test System: AMES SALMONELLA TYPHIMURIUM, Strain/Indicator: TA100, Metabolic Activation: RAT, LIVER, S-9, AROCLOR 1254, Method: STANDARD PLATE inactive; negative | Test System: AMES SALMONELLA TYPHIMURIUM, Strain/Indicator: TA1535, Metabolic Activation: NONE, Method: STANDARD PLATE inactive; negative | Test System: AMES SALMONELLA TYPHIMURIUM, Strain/Indicator: TA1535, Metabolic Activation: RAT, LIVER, S-9, AROCLOR 1254, Method: STANDARD PLATE inactive; negative | Test System: AMES SALMONELLA TYPHIMURIUM, Strain/Indicator: TA1538, Metabolic Activation: NONE, Method: STANDARD PLATE inactive; negative | Test System: AMES SALMONELLA TYPHIMURIUM, Strain/Indicator: TA1538, Metabolic Activation: RAT, LIVER, S-9, AROCLOR 1254, Method: STANDARD PLATE inactive; negative | Test System: Ames Salmonella typhimurium, Strain/Indicator: TA98, Metabolic Activation: None, Method: Preincubation inactive; negative | Test System: Ames Salmonella typhimurium, Strain/Indicator: TA98, Metabolic Activation: Rat, Liver, S9, Sodium phenobarbital and 5,6-benzoflavone (10%), Method: Preincubation inactive; negative | Test System: Ames Salmonella typhimurium, Strain/Indicator: TA100, Metabolic Activation: None, Method: Preincubation inactive; negative | Test System: Ames Salmonella typhimurium, Strain/Indicator: TA100, Metabolic Activation: Rat, Liver, S9, Sodium phenobarbital and 5,6-benzoflavone (10%), Method: Preincubation inactive; negative | Test System: Ames Salmonella typhimurium, Strain/Indicator: TA1535, Metabolic Activation: None, Method: Preincubation inactive; negative | Test System: Ames Salmonella typhimurium, Strain/Indicator: TA1535, Metabolic Activation: Rat, Liver, S9, Sodium phenobarbital and 5,6-benzoflavone (10%), Method: Preincubation inactive; negative | Test System: Ames Salmonella typhimurium, Strain/Indicator: TA1537, Metabolic Activation: None, Method: Preincubation inactive; negative | Test System: Ames Salmonella typhimurium, Strain/Indicator: TA1537, Metabolic Activation: Rat, Liver, S9, Sodium phenobarbital and 5,6-benzoflavone (10%), Method: Preincubation inactive; negative | Test System: UDS RAT HEPATOCYTES, Strain/Indicator: THY INCORP, Metabolic Activation: NONE inactive; negative
